Laboratory results taken from patent US6573218B1, “Fused-benzene derivatives useful as herbicides” (Ishihara Sangyo Kaisha, Ltd., priority 1998, dated 2003).

What was measured:
Type in all cases: in vivo
[1] = test system: soybean (Glycine max L., var. Pella 86, SOY); experiment: Post-emerge greenhouse crop damage test
Text: (§1) A standard greenhouse herbicide activity screening system was used to evaluate the herbicidal efficacy and crop safety of these test compounds. Seven broadleaf weed species including redroot pigweed (Amaranthus retroflexus, AMARE), velvetleaf (Abutilon theophrasti, ABUTH), sicklepod (Cassia obtusifolia, CASOB), ivyleaf morningglory (Ipomoea hederacea, IPOHE), lambsquarters (Chenopodium album, CHEAL), common ragweed (Ambrosia artemisiifolia L., AMBEL), and cocklebur (Xanthium strumarium, XANST) were used as test species. Four grass weed species including green foxtail (Setaria viridis, SETVI), barnyardgrass (Echinochloa crus-galli, ECHCG), johnsongrass (Sorghum halepense, SORHA), and large crabgrass (Digitaria sanguinalis, DIGSA) were also used. In addition, three crop species, field corn (Zea mays L., var. Dekalb 527, CORN), soybean (Glycine max L., var. Pella 86, SOY), and upland rice (Ory0a sp., var.Tebonnet, RICE) were included.
(§2) All plants were grown in 10 cm square plastic pots which were filled with a sandy loam soil mix. For pre-emerge tests, seeds were planted one day prior to application of the test compounds. For post-emerge tests, seeds were planted 8-21 days prior to the test to allow emergence and good foliage development prior to application of the test substances. At the time of the post-emerge application, plants of all species were usually at the 2-3 leaf stage of development.
(§3) All test compounds were dissolved in acetone and applied to the test units in a volume of 187 l/ha. Test materials were applied at rates ranging from 15 g ai/ha to 1000 g ai/ha using a track sprayer equipped with a TJ8001E even flow flat fan spray nozzle. Plants were arranged on a shelf so that the top of the canopy (post-emerge) or top of the soil surface (pre-emerge) was 40-45 cm below the nozzle. Pressurized air was used to force the test solution through the nozzle as it was mechanically advanced over the top of all test plants/pots. This application simulates a typical commercial field herbicide application.
(§4) In the post-emerge test, a commercial non-ionic surfactant was also included (0.25% v/v) to enhance wetting of the leaf surfaces of target plants. Immediately after application, test units of the pre-emerge applications were watered at the soil surface to incorporate the test materials.
(§5) At 14 days after application of the test materials, phytotoxicity ratings were recorded. A rating scale of 0-100 was used as previously described in Research Methods in Weed Science, 2nd edition, B. Truelove, Ed., Southern Weed Science Society, Auburn University, Auburn, Ala., 1977. Briefly, “0” corresponds to no damage and “100” corresponds to complete death of all plants in the test unit. This scale was used both to determine efficacy against weed species and damage to crop species. Herbicide activity data for various compounds of this invention, which are shown by compound No. in Tables 1-14, are shown in Tables 16 and 17.

[2] = test system: field corn (Zea mays L., var. Dekalb 527, CORN); experiment: Post-emerge greenhouse crop damage test
Text: as §1, §2, §3, §4, §5

[3] = test system: upland rice (Ory0a sp., var.Tebonnet, RICE); experiment: Post-emerge greenhouse crop damage test
Text: as §1, §2, §3, §4, §5

[4] = test system: redroot pigweed (Amaranthus retroflexus, AMARE); experiment: Post-emerge greenhouse herbicide test; conditions: 14 days after application
Text: as §1, §2, §3, §4, §5

[5] = test system: green foxtail (Setaria viridis, SETVI); experiment: Post-emerge greenhouse herbicide test; conditions: 14 days after application
Text: as §1, §2, §3, §4, §5

[6] = test system: large crabgrass (Digitaria sanguinalis, DIGSA); experiment: Post-emerge greenhouse herbicide test; conditions: 14 days after application
Text: as §1, §2, §3, §4, §5

[7] = test system: sicklepod (Cassia obtusifolia, CASOB); experiment: Post-emerge greenhouse herbicide test; conditions: 14 days after application
Text: as §1, §2, §3, §4, §5

[8] = test system: velvetleaf (Abutilon theophrasti, ABUTH); experiment: Post-emerge greenhouse herbicide test; conditions: 14 days after application
Text: as §1, §2, §3, §4, §5

[9] = test system: lambsquarters (Chenopodium album, CHEAL); experiment: Post-emerge greenhouse herbicide test; conditions: 14 days after application
Text: as §1, §2, §3, §4, §5

[10] = test system: barnyardgrass (Echinochloa crus-galli, ECHCG); experiment: Post-emerge greenhouse herbicide test; conditions: 14 days after application
Text: as §1, §2, §3, §4, §5

[11] = test system: johnsongrass (Sorghum halepense, SORHA); experiment: Post-emerge greenhouse herbicide test; conditions: 14 days after application
Text: as §1, §2, §3, §4, §5

[12] = test system: ivyleaf morningglory (Ipomoea hederacea, IPOHE); experiment: Post-emerge greenhouse herbicide test; conditions: 14 days after application
Text: as §1, §2, §3, §4, §5

[13] = test system: redroot pigweed (Amaranthus retroflexus, AMARE); experiment: Pre-emerge greenhouse herbicide test; conditions: 14 days after application, scale 0-100 (0 no damage, 100 complete death)
Text: as §1, §2, §3, §4, §5

[14] = test system: green foxtail (Setaria viridis, SETVI); experiment: Pre-emerge greenhouse herbicide test; conditions: 14 days after application, scale 0-100 (0 no damage, 100 complete death)
Text: as §1, §2, §3, §4, §5

[15] = test system: large crabgrass (Digitaria sanguinalis, DIGSA); experiment: Pre-emerge greenhouse herbicide test; conditions: 14 days after application, scale 0-100 (0 no damage, 100 complete death)
Text: as §1, §2, §3, §4, §5

[16] = test system: sicklepod (Cassia obtusifolia, CASOB); experiment: Pre-emerge greenhouse herbicide test; conditions: 14 days after application, scale 0-100 (0 no damage, 100 complete death)
Text: as §1, §2, §3, §4, §5

[17] = test system: velvetleaf (Abutilon theophrasti, ABUTH); experiment: Pre-emerge greenhouse herbicide test; conditions: 14 days after application, scale 0-100 (0 no damage, 100 complete death)
Text: as §1, §2, §3, §4, §5

[18] = test system: lambsquarters (Chenopodium album, CHEAL); experiment: Pre-emerge greenhouse herbicide test; conditions: 14 days after application, scale 0-100 (0 no damage, 100 complete death)
Text: as §1, §2, §3, §4, §5

[19] = test system: barnyardgrass (Echinochloa crus-galli, ECHCG); experiment: Pre-emerge greenhouse herbicide test; conditions: 14 days after application, scale 0-100 (0 no damage, 100 complete death)
Text: as §1, §2, §3, §4, §5

[20] = test system: johnsongrass (Sorghum halepense, SORHA); experiment: Pre-emerge greenhouse herbicide test; conditions: 14 days after application, scale 0-100 (0 no damage, 100 complete death)
Text: as §1, §2, §3, §4, §5

[21] = test system: ivyleaf morningglory (Ipomoea hederacea, IPOHE); experiment: Pre-emerge greenhouse herbicide test; conditions: 14 days after application, scale 0-100 (0 no damage, 100 complete death)
Text: as §1, §2, §3, §4, §5

[22] = test system: soybean (Glycine max L., var. Pella 86, SOY); experiment: Pre-emerge greenhouse crop damage test
Text: as §1, §2, §3, §4, §5

[23] = test system: field corn (Zea mays L., var. Dekalb 527, CORN); experiment: Pre-emerge greenhouse crop damage test
Text: as §1, §2, §3, §4, §5

[24] = test system: upland rice (Ory0a sp., var.Tebonnet, RICE); experiment: Pre-emerge greenhouse crop damage test; conditions: in vivo
Text: as §1, §2, §3, §4, §5

[25] = 250 g ai/ha, post-emerge, 14 days after application
[26] = pre-emerge, 250 g ai/ha, 14 days after application, scale 0-100 (0 no damage, 100 complete death)
[27] = var. Pella 86, soybean (Glycine max L.), in vivo, 14 days
[28] = var. Dekalb 527, field corn (Zea mays L.), in vivo, 14 days

CCOC(=O)c1nc2c(-n3c(=O)cc(C(F)(F)F)n(C)c3=O)c(F)cc(Cl)c2oc1=O [Compound 3-5]
Post-emerge crop damage SOY (phytotoxicity rating 0-100) [1, 25]: 0
Post-emerge crop damage CORN (phytotoxicity rating 0-100) [2, 25]: 0
Post-emerge crop damage RICE (phytotoxicity rating 0-100) [3, 25]: 0
Post-emerge Herbicidal Activity AMARE (phytotoxicity rating 0-100) ([4]; 250 g ai/ha): 20
Post-emerge Herbicidal Activity SETVI (phytotoxicity rating 0-100) ([5]; 250 g ai/ha): 10
Post-emerge Herbicidal Activity DIGSA (phytotoxicity rating 0-100) ([6]; 250 g ai/ha): 0
Post-emerge Herbicidal Activity CASOB (phytotoxicity rating 0-100) ([7]; 250 g ai/ha): 0
Post-emerge Herbicidal Activity ABUTH (phytotoxicity rating 0-100) ([8]; 250 g ai/ha): 60
Post-emerge Herbicidal Activity CHEAL (phytotoxicity rating 0-100) ([9]; 250 g ai/ha): 0
Post-emerge Herbicidal Activity ECHCG (phytotoxicity rating 0-100) ([10]; 250 g ai/ha): 0
Post-emerge Herbicidal Activity SORHA (phytotoxicity rating 0-100) ([11]; 250 g ai/ha): 0
Post-emerge Herbicidal Activity IPOHE (phytotoxicity rating 0-100) ([12]; 250 g ai/ha): 0
Pre-emerge Herbicidal Activity AMARE (phytotoxicity rating) ([13]; 250 g ai/ha): 50
Pre-emerge Herbicidal Activity SETVI (phytotoxicity rating) ([14]; 250 g ai/ha): 0
Pre-emerge Herbicidal Activity DIGSA (phytotoxicity rating) ([15]; 250 g ai/ha): 0
Pre-emerge Herbicidal Activity CASOB (phytotoxicity rating) ([16]; 250 g ai/ha): 0
Pre-emerge Herbicidal Activity ABUTH (phytotoxicity rating) ([17]; 250 g ai/ha): 65
Pre-emerge Herbicidal Activity CHEAL (phytotoxicity rating) ([18]; 250 g ai/ha): 70
Pre-emerge Herbicidal Activity ECHCG (phytotoxicity rating) ([19]; 250 g ai/ha): 0
Pre-emerge Herbicidal Activity SORHA (phytotoxicity rating) ([20]; 250 g ai/ha): 0
Pre-emerge Herbicidal Activity IPOHE (phytotoxicity rating) ([21]; 250 g ai/ha): 0
Pre-emerge Herbicidal Activity SOY (crop damage rating) [22, 26]: 0
Pre-emerge Herbicidal Activity CORN (crop damage rating) [23, 26]: 0
Pre-emerge Herbicidal Activity RICE (crop damage rating) [24]: 0

Cn1c(C(F)(F)F)cc(=O)n(-c2c(F)cc(Cl)c3c2NCCO3)c1=O [Compound 2-1, 3-(8-Chloro-6-fluoro-3,4-dihydro-2H-1,4-benzoxazin-5-yl)-1-methyl-6-trifluoromethyl-2,4(1H,3H)-pyrimidindione]
Post-emerge crop damage SOY (phytotoxicity rating 0-100) [1, 27]: 90
Post-emerge crop damage CORN (phytotoxicity rating 0-100) [2, 28]: 20
Post-emerge crop damage RICE (phytotoxicity rating 0-100) ([3]; var. Tebonnet, upland rice (Ory0a sp.), in vivo, 14 days): 40
Post-emerge Herbicidal Activity AMARE (phytotoxicity rating 0-100) ([4]; 125 g ai/ha): 90
Post-emerge Herbicidal Activity SETVI (phytotoxicity rating 0-100) ([5]; 125 g ai/ha): 50
Post-emerge Herbicidal Activity DIGSA (phytotoxicity rating 0-100) ([6]; 125 g ai/ha): 0
Post-emerge Herbicidal Activity CASOB (phytotoxicity rating 0-100) ([7]; 125 g ai/ha): 80
Post-emerge Herbicidal Activity ABUTH (phytotoxicity rating 0-100) ([8]; 125 g ai/ha): 100
Post-emerge Herbicidal Activity CHEAL (phytotoxicity rating 0-100) ([9]; 125 g ai/ha): 100
Post-emerge Herbicidal Activity ECHCG (phytotoxicity rating 0-100) ([10]; 125 g ai/ha): 10
Post-emerge Herbicidal Activity SORHA (phytotoxicity rating 0-100) ([11]; 125 g ai/ha): 0
Post-emerge Herbicidal Activity IPOHE (phytotoxicity rating 0-100) ([12]; 125 g ai/ha): 100
Pre-emerge Herbicidal Activity AMARE (phytotoxicity rating) ([13]; 125 g ai/ha): 100
Pre-emerge Herbicidal Activity SETVI (phytotoxicity rating) ([14]; 125 g ai/ha): 100
Pre-emerge Herbicidal Activity DIGSA (phytotoxicity rating) ([15]; 125 g ai/ha): 100
Pre-emerge Herbicidal Activity CASOB (phytotoxicity rating) ([16]; 125 g ai/ha): 40
Pre-emerge Herbicidal Activity ABUTH (phytotoxicity rating) ([17]; 125 g ai/ha): 100
Pre-emerge Herbicidal Activity CHEAL (phytotoxicity rating) ([18]; 125 g ai/ha): 100
Pre-emerge Herbicidal Activity ECHCG (phytotoxicity rating) ([19]; 125 g ai/ha): 50
Pre-emerge Herbicidal Activity SORHA (phytotoxicity rating) ([20]; 125 g ai/ha): 95
Pre-emerge Herbicidal Activity IPOHE (phytotoxicity rating) ([21]; 125 g ai/ha): 50
Pre-emerge Herbicidal Activity SOY (crop damage rating) [22, 27]: 50
Pre-emerge Herbicidal Activity CORN (crop damage rating) [23, 28]: 20
Pre-emerge Herbicidal Activity RICE (crop damage rating) ([24]; var. Tebonnet, upland rice (Ory0a sp.), 14 days): 70
